{
  "source": "paper PMC6944674",
  "about": "“Comparison of the Hepatotoxic Potential of Two Treatments for Autosomal-Dominant Polycystic Kidney DiseaseUsing Quantitative Systems Toxicology Modeling” (Pharmaceutical Research, 2020)",
  "key": {"human MRP4": {"molecular_target": "T1, human MRP4 (Homo sapiens, UniProt O15439)", "T1 construct": "host or cells: HEK-293 cell membrane vesicles", "T1 sequence (O15439 1-1325)": "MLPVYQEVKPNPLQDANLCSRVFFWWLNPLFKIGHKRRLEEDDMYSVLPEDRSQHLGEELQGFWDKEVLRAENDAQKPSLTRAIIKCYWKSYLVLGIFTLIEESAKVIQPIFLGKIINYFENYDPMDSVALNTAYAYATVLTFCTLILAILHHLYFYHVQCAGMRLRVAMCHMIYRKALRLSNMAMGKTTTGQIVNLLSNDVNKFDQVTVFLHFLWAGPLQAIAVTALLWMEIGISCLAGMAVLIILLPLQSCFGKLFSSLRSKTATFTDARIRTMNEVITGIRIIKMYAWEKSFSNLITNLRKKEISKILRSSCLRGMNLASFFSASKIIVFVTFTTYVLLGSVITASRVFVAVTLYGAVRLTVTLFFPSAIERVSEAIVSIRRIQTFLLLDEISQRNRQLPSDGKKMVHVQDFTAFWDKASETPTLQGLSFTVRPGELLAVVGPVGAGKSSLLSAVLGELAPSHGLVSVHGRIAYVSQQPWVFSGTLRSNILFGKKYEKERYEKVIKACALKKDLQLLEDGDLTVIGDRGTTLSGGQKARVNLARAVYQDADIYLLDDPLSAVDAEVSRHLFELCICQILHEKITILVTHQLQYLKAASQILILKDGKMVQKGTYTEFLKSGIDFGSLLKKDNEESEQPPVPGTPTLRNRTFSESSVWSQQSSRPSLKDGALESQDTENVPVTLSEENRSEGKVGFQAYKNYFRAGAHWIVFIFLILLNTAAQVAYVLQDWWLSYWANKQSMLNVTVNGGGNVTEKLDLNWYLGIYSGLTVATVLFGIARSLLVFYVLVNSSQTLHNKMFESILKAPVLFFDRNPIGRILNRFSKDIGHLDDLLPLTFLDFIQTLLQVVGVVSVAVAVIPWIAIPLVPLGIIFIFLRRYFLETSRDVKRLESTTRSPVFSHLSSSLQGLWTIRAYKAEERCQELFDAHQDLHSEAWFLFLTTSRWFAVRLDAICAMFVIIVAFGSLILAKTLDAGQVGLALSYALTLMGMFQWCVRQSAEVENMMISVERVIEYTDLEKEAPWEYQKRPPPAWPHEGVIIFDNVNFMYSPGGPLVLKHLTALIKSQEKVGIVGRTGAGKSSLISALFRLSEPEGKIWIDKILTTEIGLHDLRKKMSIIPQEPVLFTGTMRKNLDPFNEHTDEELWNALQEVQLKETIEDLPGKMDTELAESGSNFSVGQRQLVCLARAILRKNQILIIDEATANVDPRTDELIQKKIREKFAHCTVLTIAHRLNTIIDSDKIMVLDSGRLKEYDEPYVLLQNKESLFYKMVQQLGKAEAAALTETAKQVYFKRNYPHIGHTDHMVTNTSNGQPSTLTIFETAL", "experiment": "MRP4 vesicular transport inhibition assay (E217βG, HEK-293 cell membrane vesicles)", "format": "biochemical", "protocol": "(§1) The functional impact of lixivaptan, its three metabolites and tolvaptan on the human ABC (efflux) transporters BSEP and MRP3 and MRP4 was assessed for this project using in vitro vesicular transport inhibition assays. The inhibition of the human SLC (uptake) transporter NTCP was assessed using CHO cells stably expressing human NTCP. The concentration ranges used for the five test articles was determined based on the solubility of each compound in the assay solution. All transporter inhibition assays were conducted in triplicate by Solvo Biotechnology (Szeged, Hungary).\nFigure B2. […] See Appendix A for more details."}, "human NTCP": {"molecular_target": "T2, human NTCP (Homo sapiens, UniProt Q14973)", "T2 sequence (Q14973 1-349)": "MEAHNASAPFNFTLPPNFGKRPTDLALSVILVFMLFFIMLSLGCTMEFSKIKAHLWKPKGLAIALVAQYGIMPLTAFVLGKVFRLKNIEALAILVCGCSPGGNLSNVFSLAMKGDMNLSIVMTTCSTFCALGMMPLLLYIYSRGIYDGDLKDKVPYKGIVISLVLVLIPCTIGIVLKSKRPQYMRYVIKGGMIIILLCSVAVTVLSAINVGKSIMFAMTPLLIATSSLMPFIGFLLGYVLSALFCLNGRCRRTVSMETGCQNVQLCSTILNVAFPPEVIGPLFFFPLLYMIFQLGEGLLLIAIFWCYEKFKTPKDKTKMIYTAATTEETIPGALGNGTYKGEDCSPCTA", "experiment": "NTCP inhibition in CHO cells stably expressing human NTCP (taurocholate)", "format": "cell-based", "protocol": "as §1\nFigure B4. […] See Appendix A for more details."}, "[1]": {"set-up": "method as in proprietary data not shown", "details": "ref proprietary data not shown, cited from earlier work"}, "HepG2 cells": {"tested_on": "HepG2 cells", "experiment": "Intracellular concentration by LC/MS/MS in HepG2 cultures parallel to Seahorse assay", "format": "in vitro ADME", "details": "Seahorse medium; for CIntracellular Fraction: cell lysate; for CHepatocyte: corrected for lysate and HepG2 cell volume", "protocol": "The concentration of test compound at the site of action (i.e. hepatocytes) has been identified as highly influential in the selection of parameter values (7). To assess intracellular concentrations of the five test articles, identical HepG2 cultures were established in parallel and cell lysate concentrations of the test articles were measured by LC/MS/MS analysis. Intracellular concentrations of the test articles were calculated by correcting for cell lysate volume (100 µL) and the volume of HepG2 cells in each well, which was calculated by multiplying cell count per well by cellular volume per cell (2.85 pl/cell). One independent study in duplicate was conducted to assess intracellular concentrations of the test articles for Seahorse studies."}},
  "data": [
    {"smiles": "Cc1ccc(F)cc1C(=O)Nc1ccc(C(=O)N2Cc3cccn3Cc3ccccc32)c(Cl)c1", "note": "[Lixivaptan, lixivaptan]", "values": [
      {"measurement": "inhibition of MRP4-mediated probe substrate accumulation", "setting": "human MRP4", "result": "inhibited"},
      {"measurement": "inhibition of NTCP-mediated probe substrate accumulation", "setting": "human NTCP; CHO cells", "result": "observed"},
      {"measurement": "IC50", "setting": "human NTCP; read-out: NTCP inhibition constant (IC50)", "result": 19, "unit": "µM"},
      {"measurement": "plasma fraction unbound", "setting": "[1]; human", "result": "less than 1%"},
      {"measurement": "blood:plasma ratio", "setting": "[1]", "result": 0.6},
      {"measurement": "CIntracellular Fraction", "setting": "HepG2 cells; dose 0.1 µM", "result": 0, "unit": "µM"},
      {"measurement": "CHepatocyte", "setting": "HepG2 cells; dose 0.1 µM", "result": 0, "unit": "µM"},
      {"measurement": "CIntracellular Fraction", "setting": "HepG2 cells; dose 0.5 µM", "result": 0.00582, "unit": "µM"},
      {"measurement": "CHepatocyte", "setting": "HepG2 cells; dose 0.5 µM", "result": 11.61, "unit": "µM"},
      {"measurement": "CIntracellular Fraction", "setting": "HepG2 cells; dose 1 µM", "result": 0.00738, "unit": "µM"},
      {"measurement": "CHepatocyte", "setting": "HepG2 cells; dose 1 µM", "result": 14.34, "unit": "µM"},
      {"measurement": "CIntracellular Fraction", "setting": "HepG2 cells; dose 5 µM", "result": 0.0193, "unit": "µM"},
      {"measurement": "CHepatocyte", "setting": "HepG2 cells; dose 5 µM", "result": 40.10, "unit": "µM"},
      {"measurement": "CIntracellular Fraction", "setting": "HepG2 cells; dose 10 µM", "result": 0.0307, "unit": "µM"},
      {"measurement": "CHepatocyte", "setting": "HepG2 cells; dose 10 µM", "result": 63.51, "unit": "µM"},
      {"measurement": "CIntracellular Fraction", "setting": "HepG2 cells; dose 25 µM", "result": 0.0525, "unit": "µM"},
      {"measurement": "CHepatocyte", "setting": "HepG2 cells; dose 25 µM", "result": 112.99, "unit": "µM"},
      {"measurement": "CIntracellular Fraction", "setting": "HepG2 cells; dose 40 µM", "result": 0.0823, "unit": "µM"},
      {"measurement": "CHepatocyte", "setting": "HepG2 cells; dose 40 µM", "result": 184.62, "unit": "µM"}
    ]}
  ]
}
